In patent publication US5840917A, “Phosphorylamides, their preparation and use” (Takeda Chemical Industries, Ltd., priority 1995, dated 1998):
Read-outs that look alike come from different tables or passages of the source.

Target: T1, Helicobacter pylori-derived urease (Helicobacter pylori, UniProt P69996)
T1 construct: an urease solution prepared from Helicobacter pylori; endogenous in cells
Assay: Screening of urease inhibitors (ammonia yield from urea)
Format: biochemical
Description: Screening of Urease Inhibitors
One hundred (100) μl of 100 mM Bis-Tris buffer (pH 6.5) and 60 μl of an urease solution prepared from Helicobacter pylori were added to 20 μl of a test drug dissolved in 0.1% dimethylformamide solution. The mixture was incubated at room temperature for 30 minutes, and then 20 μl of 100 mM urea was added. The mixture was kept at room temperature for 10 minutes, and then the yielded ammonia in the incubation mixture was measured using a commercial test kit (Ammonia Test Wako®; Wako Pure Chemical). The percent inhibition against the yield of ammonia in the solvent addition group was calculated to obtain the IC50 value.

T1 sequence (P69996 whole entry, looked up): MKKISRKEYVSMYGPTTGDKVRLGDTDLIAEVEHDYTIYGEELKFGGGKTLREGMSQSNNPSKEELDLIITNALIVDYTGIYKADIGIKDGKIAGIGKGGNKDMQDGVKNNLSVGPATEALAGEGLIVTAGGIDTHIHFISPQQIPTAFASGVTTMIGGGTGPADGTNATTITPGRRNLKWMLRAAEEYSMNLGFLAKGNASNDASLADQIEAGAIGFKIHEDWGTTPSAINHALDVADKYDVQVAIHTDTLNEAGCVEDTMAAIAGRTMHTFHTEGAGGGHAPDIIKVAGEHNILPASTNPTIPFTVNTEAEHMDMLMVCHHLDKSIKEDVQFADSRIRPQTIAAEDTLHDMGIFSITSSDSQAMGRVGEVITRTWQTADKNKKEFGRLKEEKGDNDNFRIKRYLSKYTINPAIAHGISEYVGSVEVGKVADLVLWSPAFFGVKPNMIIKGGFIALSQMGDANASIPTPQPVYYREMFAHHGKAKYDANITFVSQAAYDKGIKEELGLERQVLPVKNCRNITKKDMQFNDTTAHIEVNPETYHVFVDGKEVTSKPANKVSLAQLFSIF

`CCOc1ccc2sc(SCC(=O)NP(N)(N)=O)nc2c1` [Example 66, N-(Diaminophosphinyl)-5-ethoxy-2-benzothiazolylthioacetamide] gave an IC50 (Bis-Tris pH 6.5, room temperature, 30 min preincubation, 10 min with urea, read-out: IC50, inhibitory effect against Helicobacter pylori-derived urease) of 10 nM.

`NP(N)(=O)NC(=O)c1cc2ccccc2o1` [Example 67, N-(Diaminophosphinyl)-2-benzofurancarboxamide] showed an IC50 of 6.1 nM.

`Cc1nc2cc(C(=O)NP(N)(N)=O)ccc2o1` [Example 68, N-(Diaminophosphinyl)-2-methyl-5-benzoxazolecarboxamide] showed an IC50 of 18 nM.

`NP(N)(=O)NC(=O)C=Cc1nc2ccccc2o1` [Example 69, N-(Diaminophosphinyl)-3-(2-benzoxazolyl)propenamide] showed an IC50 of 9.7 nM.

Compound `NP(N)(=O)NC(=O)c1nc2ccccc2s1` [Example 70, N-(Diaminophosphinyl)-2-benzothiazolecarboxamide] has an IC50 of 13 nM.

In the case of `Cc1ccc2c(Cl)c(C(=O)NP(N)(N)=O)sc2c1` [Example 71, N-(Diaminophosphinyl)-3-chloro-6-methylbenzothiophenecarboxamide], the IC50 is reported as 1.9 nM.

Work on `NP(N)(=O)NC(=O)C=Cc1nc2cc(Cl)ccc2o1` [Example 72, N-(Diaminophosphinyl)-3-(5-chloro-2-benzoxazolyl)propenamide] yielded an IC50 of 3.6 nM.

For `Cc1onc(-c2ccccc2)c1C(=O)NP(N)(N)=O` [Example 73, N-(Diaminophosphinyl)-5-methyl-3-phenyl-4-isoxazolecarboxamide], the IC50 was 55 nM.

Work on `NP(N)(=O)NC(=O)c1sc2ccccc2c1Cl` [Example 74, N-(Diaminophosphinyl)-3-chloro-2-benzothiophenecarboxamide] yielded an IC50 of 5.1 nM.

For `NP(N)(=O)NC(=O)Cc1noc2ccccc12` [Example 75, N-(Diaminophosphinyl)-3-benzisoxazolylacetamide], the IC50 was 22 nM.

Work on `NP(N)(=O)NC(=O)C=Cc1cc(Br)cs1` [Example 77, N-(Diaminophosphinyl)-3-(4-bromo-2-thienyl)propenamide] yielded an IC50 of 8.1 nM.

With `NP(N)(=O)NC(=O)C=Cc1cccs1` [Example 78, N-(Diaminophosphinyl)-3-(2-thienyl)propenamide] the IC50 was 4.7 nM.

Work on `N#CC(=Cc1cccs1)C(=O)NP(N)(N)=O` [Example 79, N-(Diaminophosphinyl)-2-cyano-3-(2-thienyl)propenamide] yielded an IC50 of 6 nM.

`NP(N)(=O)NC(=O)Cc1cccs1` [Example 80, N-(Diaminophosphinyl)-2-thienylacetamide] was tested, and the IC50 was 4.4 nM.

In the case of `NP(N)(=O)NC(=O)Cc1ccsc1` [Example 81, N-(Diaminophosphinyl)-3-thienylacetamide], the IC50 is reported as 7.9 nM.

Compound `NP(N)(=O)NC(=O)CCc1nc2ccccc2o1` [Example 82, N-(Diaminophosphinyl)-3-(2-benzoxazolyl)propionamide] has an IC50 of 27 nM.

For `NP(N)(=O)NC(=O)Cn1cnc2ccccc21` [Example 83, N-(Diaminophosphinyl)-1-benzimidazolylacetamide], the IC50 was 7 nM.

`NP(N)(=O)NC(=O)c1cc(Cl)cs1` [Example 84, N-(Diaminophosphinyl)-4-chloro-2-thiophenecarboxamide] gave an IC50 of 2.5 nM.

`Cc1cscc1C(=O)NP(N)(N)=O` [Example 85, N-(Diaminophosphinyl)-4-methyl-3-thiophenecarboxamide] showed an IC50 of 2.2 nM.

`NP(N)(=O)NC(=O)c1cc(Br)sc1Cl` [Example 86, N-(Diaminophosphinyl)-5-bromo-2-chloro-3-thiophenecarboxamide] showed an IC50 of 0.9 nM.

Work on `Cc1c(C(=O)NP(N)(N)=O)csc1Cl` [Example 87, N-(Diaminophosphinyl)-5-chloro-4-methyl-3-thiophenecarboxamide] yielded an IC50 of 2.5 nM.

Work on `Cc1c(Cl)sc(Cl)c1C(=O)NP(N)(N)=O` [Example 88, N-(Diaminophosphinyl)-2,5-dichloro-4-methyl-3-thiophenecarboxamide] yielded an IC50 of 3.3 nM.

With `Cc1cc(C(=O)NP(N)(N)=O)c(Cl)s1` [Example 89, N-(Diaminophosphinyl)-2-chloro-5-methyl-3-thiophenecarboxamide] the IC50 was 2.6 nM.

With `Cc1csc(C(=O)NP(N)(N)=O)c1Cl` [Example 90, N-(Diaminophosphinyl)-3-chloro-4-methyl-2-thiophenecarboxamide] the IC50 was 6.3 nM.

Compound `Cc1cc(C)c(C(=O)NP(N)(N)=O)s1` [Example 91, N-(Diaminophosphinyl)-3,5-dimethyl-2-thiophenecarboxamide] has an IC50 of 6.3 nM.

Work on `Cc1ccoc1C(=O)NP(N)(N)=O` [Example 92, N-(Diaminophosphinyl)-3-methyl-2-furancarboxamide] yielded an IC50 of 6 nM.

`NP(N)(=O)NC(=O)c1cccnc1` [Reference Example 2, N-(Diaminophosphinyl)-3-pyridinecarboxamide] showed an IC50 of 9.6 nM.

`NP(N)(=O)NC(=O)c1ccc([N+](=O)[O-])cc1` [Reference Example 3, N-(Diaminophosphinyl)-4-nitrobenzamide] showed an IC50 of 6.6 nM.

Compound `NP(N)(=O)NC(=O)C=Cc1ccccc1` [Reference Example 4, N-(Diaminophosphinyl)cinnamamide] has an IC50 of 10 nM.

With `NP(N)(=O)NC(=O)Cc1ccccc1` [Reference Example 6, N-(Diaminophosphinyl)-phenylacetamide] the IC50 was 15 nM.

Compound `NP(N)(=O)NC(=O)c1cccc(F)c1` [Reference Example 8, N-(Diaminophosphinyl)-3-fluorobenzamide] has an IC50 of 4.5 nM.

For `NP(N)(=O)NC(=O)c1c(F)cccc1F` [Reference Example 9, N-(Diaminophosphinyl)-2,6-difluorobenzamide], the IC50 was 9.7 nM.

For `NP(N)(=O)NC(=O)c1ccc(F)cc1F` [Reference Example 10, N-(Diaminophosphinyl)-2,4-difluorobenzamide], the IC50 was 7.8 nM.

Work on `COc1ccc(C(=O)NP(N)(N)=O)cc1` [Reference Example 12, N-(diaminophosphinyl)-4-methoxybenzamide] yielded an IC50 of 44 nM.

`Cc1ccc(C(=O)NP(N)(N)=O)cc1` [Reference Example 15, N-(Diaminophosphinyl)-4-methylbenzamide] showed an IC50 of 17 nM.

Compound `NP(N)(=O)NC(=O)c1ccccc1F` [Reference Example 16, N-(Diaminophosphinyl)-2-fluorobenzamide] has an IC50 of 2.7 nM.

For `NP(N)(=O)NC(=O)CCc1ccccc1` [Reference Example 37, N-(Diaminophosphinyl)-3-phenylpropionamide], the IC50 was 17 nM.

For `NP(N)(=O)NC(=O)CCc1ccc(F)cc1` [Reference Example 38, N-(Diaminophosphinyl)-3-(4-fluorophenyl)propionamide], the IC50 was 9.7 nM.

`NP(N)(=O)NC(=O)c1ccc(Cl)cc1` [compound 7, N-(Diaminophosphinyl)-4-chlorobenzamide] showed an IC50 of 6.9 nM.

`NP(N)(=O)NC(=O)c1ccccc1[N+](=O)[O-]` [compound 18, N-(Diaminophosphinyl)-2-nitrobenzamide] was tested, and the IC50 was 5.1 nM.

Work on `NP(N)(=O)NC(=O)c1ccc(C(F)(F)F)cc1` [compound 19, N-(Diaminophosphinyl)-4-trifluoromethylbenzamide] yielded an IC50 of 12 nM.

`NP(N)(=O)NC(=O)C=Cc1ccc(F)cc1` [compound 20, N-(Diaminophosphinyl)-4-fluorocinnamamide] gave an IC50 of 6.5 nM.

With `NP(N)(=O)NC(=O)c1cc(F)cc(F)c1` [compound 21, N-(Diaminophosphinyl)-3,5-difluorobenzamide] the IC50 was 7.9 nM.

`NP(N)(=O)NC(=O)c1ccccc1C(F)(F)F` [compound 24, N-(Diaminophosphinyl)-2-trifluoromethylbenzamide] showed an IC50 of 8 nM.
